One series has as its target T1, IRAK3 (Homo sapiens, UniProt Q9Y616).
T1 construct: pseudokinase domain, residues 145–454
T1 sequence (Q9Y616 145-454): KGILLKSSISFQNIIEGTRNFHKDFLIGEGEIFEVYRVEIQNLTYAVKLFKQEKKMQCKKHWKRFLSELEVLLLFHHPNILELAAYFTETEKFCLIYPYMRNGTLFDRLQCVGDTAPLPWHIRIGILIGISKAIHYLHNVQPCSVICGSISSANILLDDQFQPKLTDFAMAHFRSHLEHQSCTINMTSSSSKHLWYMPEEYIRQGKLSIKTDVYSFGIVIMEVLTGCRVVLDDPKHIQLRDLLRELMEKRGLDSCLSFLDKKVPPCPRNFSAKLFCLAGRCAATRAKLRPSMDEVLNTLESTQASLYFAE
In words: thermal shift assay dose response with isothermal analysis at […]°C. In kind it is binding.

The target in another series is T2, IRAK2 (Homo sapiens, UniProt O43187).
T2 construct: pseudokinase domain, residues 192-507
T2 sequence (O43187 192-507): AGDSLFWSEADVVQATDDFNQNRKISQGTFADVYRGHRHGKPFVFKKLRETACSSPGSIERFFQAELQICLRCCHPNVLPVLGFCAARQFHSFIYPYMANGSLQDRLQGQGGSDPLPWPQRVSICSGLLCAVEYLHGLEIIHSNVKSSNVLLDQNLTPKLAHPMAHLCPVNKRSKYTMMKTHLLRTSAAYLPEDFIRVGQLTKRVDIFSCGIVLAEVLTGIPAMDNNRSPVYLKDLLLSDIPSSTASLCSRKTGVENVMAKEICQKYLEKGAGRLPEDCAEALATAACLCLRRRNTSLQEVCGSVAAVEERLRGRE
Described as above. It counts as binding.

Series [1] concerns the molecule itself. In words: crystal structure; IRAK3_(145-454) at 7-10 mg/mL, 0.1 M citric acid pH 5.0, 1.62 M ammonium sulfate, 20°C, hanging drop; 2.9 Å; three molecules in the asymmetric unit.
Series [2] deals with the molecule itself. The series is described as follows: SEC; analytical gel filtration, Superdex Increase 3.2/300, 20 mM HEPES pH 7.5, 200 mM NaCl, 10% glycerol, 1 mM DTT; 25 μl loaded at 1-5 mg/ml; fractions on SDS-PAGE; monomer to dimer.

Positions count from the first letter of the chain named. Numbers in names are those of the source.

For `Nc1ncnc2c1ncn2[C@@H]1O[C@H](COP(=O)(O)OP(=O)(O)OP(=O)(O)O)[C@@H](O)[C@H]1O` [ATP], the Kd on IRAK3 was about 196 µM; at IRAK2 it was 9.8 ± 3.8 µM.

B1: IRAK3 pseudokinase domain (residues 145-454), wild type (domain or fragment, human, UniProt Q9Y616 145-454, looked up)
chain: T1 sequence (Q9Y616 145-454)
notes: Interleukin-1 receptor associated kinase 3 (IRAK3), human, pseudokinase domain, residues 145-454; Construct 6His-TEV-GST-3C-IRAK3 145-454; the 6His-GST tag was cut off with PreScission protease; also called IRAK3_(145-454); IRAK3-PK; source: Sf21 insect cells (baculovirus), purified (Ni-NTA, GSH sepharose, PreScission cleavage, gel filtration); not shown: His6, N-terminal, cleaved; GST, …
On to B1, for which the “stoichiometry N” value in series [1] worked out at 2.

B2: IRAK3 pseudokinase domain (residues 145-454) E214L (domain or fragment, human, UniProt Q9Y616 145-454, looked up)
chain: T1 sequence (Q9Y616 145-454) with E70L
notes: IRAK3, human, pseudokinase domain, residues 145-454, with E214L; Construct 6His-TEV-GST-3C-IRAK3 145-454 E214L; PDB 6RUU holds the wild-type parent; also called IRAK3_(145-454) E214L; source: Sf21 insect cells (baculovirus), purified (Ni-NTA, GSH sepharose, PreScission cleavage, gel filtration); not shown: His6, N-terminal, cleaved; GST, N-terminal, cleaved
As for B2, the “stoichiometry N” value in series [2] stood at 2.

In general, Kd refers to the concentration at which binding is half-saturated. As usually defined, the stoichiometry N is a count of units in the complex or per binding partner.

(Values after PMC7955167 (Structure(London, England:1993), 2021).)
